We go through 25 molecules from patent US6894061B2, “Substituted dihydrophenanthridinesulfonamides” (Wyeth, priority 2002, dated 2005).

The subject of one data set is IL-6. The data set is described as follows: IL-6 test procedure (IL-6 ELISA of media) in Ad5-wt-ERα infected HAECT-1 cells. Type of data set: cell-based, human. As to conditions: for Emax: read-out: Interleukin-6 Efficacy (%); for IC50: read-out: Interleukin-6 IC50. On the procedure:
After four hours, cells were washed with EBM-BSA and incubated overnight in the same medium. Following overnight incubation, cells were washed with EBM-BSA and infected for 2 hours with 6 mL of a 1:10 dilution of Ad5-3x(NFκB).Luc virus (Adenovirus luciferase expression vector driven by 3 repeats of the MHC NFκb site 5′ to the thymidine kinase promoter) in EBM-BSA. After two hours, cells were washed and incubated at 34° C. for 1 hour. […] Control (no ER infection) cells were processed as above without Ad5-wt-hERα virus infection.
ERα infected HAECT-1 cells or control cells were thawed, diluted 42× in warm EBM-BSA, plated into 96-well plates at 0.1 mL/well and incubated for 4 hours at 34° C. Test compounds were added to the cells as 2× stocks in EBM-BSA containing 2 ng/mL IL-1β (R&D Systems) and the 96-well plates were returned to the incubator (34° C.). After 15-20 hours, 100 μL aliquots of media were removed from the cells and assayed for IL-6 content using a BioSource human IL-6 ELISA Kit. Cells were subsequently washed with 300 μL of Dulbecco's phosphate buffered saline and lysed in 50 μL of Cell Culture Lysis Reagent (Promega). Luciferase was determined on a Wallac Victor^2 Luminometer (Gaithersburg, Md.) using 10 μL of lysate and mixing with 100 μL of Promega Luciferase Assay reagent. Creatine kinase was determined from the rate of increase in A340 following addition of 100 μL of CK assay reagent (Sigma, cat. No 47-10) to the remainder of the cell lysate.
For IC50 and EC50 calculations, mean IL-6, luciferase or CK values versus log10 of the compound concentration were fitted to a four parameter logistic equation. The IC50/EC50 value, ‘Hill slope’, upper and lower limits of the curve were iteratively estimated.

The next data set concerns creatine kinase. The data set is described as follows: Creatine kinase (CK) test procedure in Ad5-wt-ERα infected HAECT-1 cells. As to conditions: Ad5-wt-ERα infected HAECT-1 cells; for EC50: read-out: Creatin Kinase EC50; for Emax / Emax at 10 µM: read-out: Creatin Kinase Efficacy (%). Type of data set: cell-based, human.
For a further data set, the system named is ER/NF-κB. Kind of data set: ER/NF-κB luciferase reporter in Ad5-wt-ERα infected HAECT-1 cells. Particulars: Homo sapiens, HAECT1, IL-1β; for Emax: read-out: ER/NFκB Efficacy (%)*; for IC50: read-out: ER/NFκB IC50. Type of data set: cell-based, human.

Read-outs that look alike come from different tables or passages of the source. Where only a bound is given, the exact number is not on record here.

For `C[C@@H]1c2cc(F)ccc2-c2ccc(F)cc2N1S(=O)(=O)c1ccc(O)cc1` (single isomer, unassigned) [Example 99], in the data set with IL-6 (Homo sapiens, HAECT1, IL-1β), the Emax was 139% and the IC50 stood at 0.341 µM.

`C[C@H]1c2cc(F)ccc2-c2ccc(F)cc2N1S(=O)(=O)c1ccc(O)cc1` (single isomer, unassigned) [Example 100]: in the data set on IL-6 (Homo sapiens, HAECT1, IL-1β), the Emax was found to be 196% and the IC50 came out at 0.0069 µM.

Consider `C[C@@H]1c2cc(F)ccc2-c2ccc(F)cc2N1S(=O)(=O)c1cccc(O)c1` (single isomer, unassigned) [Example 101], for which, in the data set on IL-6 (Homo sapiens, HAECT1, IL-1β), the Emax stood at 74% and the IC50 was 1.28 µM.

`C[C@H]1c2cc(F)ccc2-c2ccc(F)cc2N1S(=O)(=O)c1cccc(O)c1` (single isomer, unassigned) [Example 102]: in the data set with IL-6 (Homo sapiens, HAECT1, IL-1β), the Emax worked out at 156% and the IC50 was determined as 0.0054 µM.

In the case of `C[C@H]1c2cc(F)ccc2-c2ccc(F)cc2N1S(=O)(=O)c1ccc(O)cc1O` (single isomer, unassigned) [Example 103], in the data set with IL-6 (Homo sapiens, HAECT1, IL-1β), the Emax stood at 141% and the IC50 was found to be 0.047 µM. In the data set on creatine kinase (Homo sapiens, HAECT1), the EC50 is 0.085 µM and the Emax was found to be 9%.

With `C[C@@H]1c2cc(F)ccc2-c2ccc(F)cc2N1S(=O)(=O)c1ccc(O)cc1O` (single isomer, unassigned) [Example 104], in the data set on IL-6 (Homo sapiens, HAECT1, IL-1β), the Emax came to 43% and the IC50 was 0.171 µM. Besides, the Emax in the data set on creatine kinase (Homo sapiens, HAECT1) turned out to be 9%.

For the molecule `CCC1c2cc(F)ccc2-c2cc(-c3ccccc3)ccc2N1S(=O)(=O)c1ccc(O)cc1` (stereo not shown) [Example 47, 4-[(6-Ethyl-8-fluoro-2-phenylphenanthridin-5(6H)-yl)sulfonyl]phenol], the melting point was found to be 207 °C. Besides, in the data set with ER/NF-κB, the Emax was 89% and the IC50 was 0.06 µM. In addition, the Emax at 10 µM with creatine kinase (Homo sapiens, HAECT1) is under 35%.

Molecule `CC1c2cc(F)ccc2-c2ccccc2N1S(=O)(=O)c1cccc(O)c1` (stereo not shown) [Example 48, 3-[(8-fluoro-6-methylphenanthridin-5(6H)-yl)sulfonyl]phenol] came in with a melting point of 161 °C. In the data set on ER/NF-κB, the Emax worked out at 107% and the IC50 turned out to be 0.525 µM. In addition, in the data set on creatine kinase (Homo sapiens, HAECT1), the Emax at 10 µM was under 35%.

On to `CC1c2cc(F)ccc2-c2ccccc2N1S(=O)(=O)c1ccc(O)c(F)c1` (stereo not shown) [Example 49, 2-Fluoro-4-[(8-fluoro-6-methylphenanthridin-5(6H)-yl)sulfonyl]phenol], for which the melting point came to 191 °C. Besides, the IC50 in the data set on ER/NF-κB was over 10 µM. For the same molecule, the Emax at 10 µM with creatine kinase (Homo sapiens, HAECT1) is under 35%.

`CC1c2cc(F)ccc2-c2ccccc2N1S(=O)(=O)c1ccc(O)c(O)c1` (stereo not shown) [Example 50, 4-[(8-Fluoro-6-methylphenanthridin-5(6H)-yl)sulfonyl]benzene-1,2-diol] returned a melting point of 165 to 170 °C. For the same molecule, in the data set with ER/NF-κB, the IC50 is over 10 µM. In the data set with creatine kinase (Homo sapiens, HAECT1), the Emax at 10 µM was under 35%.

For `CCC1c2cc(F)ccc2-c2cc(C)ccc2N1S(=O)(=O)c1ccc(O)cc1` (stereo not shown) [Example 51, 4-[(6-Ethyl-8-fluoro-2-methylphenanthridin-5(6H)-yl)sulfonyl]phenol], the melting point was 197 to 200 °C. Further, in the data set on ER/NF-κB, the Emax was 106% and the IC50 stood at 0.056 µM. Also, in the data set on creatine kinase (Homo sapiens, HAECT1), the half-maximal effective concentration (EC50) came to 0.077 µM and the Emax was determined as 27%.

With `CCC1c2cc(F)ccc2-c2ccccc2N1S(=O)(=O)c1ccc(OC(=O)CC(C)(C)C)cc1` (stereo not shown) [Example 53, 4-[(6-Ethyl-8-fluorophenanthridin-5(6H)-yl)sulfonyl]phenyl 3,3-dimethylbutanoate], the melting point stood at 128 °C. Further, in the data set with ER/NF-κB, the Emax was 76% and the IC50 worked out at 0.764 µM. Also, in the data set with creatine kinase (Homo sapiens, HAECT1), the Emax at 10 µM is under 35%.

`CCC(=O)Oc1ccc(S(=O)(=O)N2c3ccccc3-c3ccc(F)cc3C2CC)cc1` (stereo not shown) [Example 54, 4-[(6-Ethyl-8-fluorophenanthridin-5(6H)-yl)sulfonyl]phenyl propionate] returned a melting point of 111 to 112 °C. Also, in the data set with ER/NF-κB, the Emax worked out at 87% and the IC50 was determined as 0.423 µM. Further, in the data set with creatine kinase (Homo sapiens, HAECT1), the EC50 turned out to be 0.839 µM and the Emax is 24%.

The molecule `CC1c2ccccc2-c2ccccc2N1S(=O)(=O)c1ccc(O)c(F)c1` (stereo not shown) [Example 56, 2-Fluoro-4-[(6-methylphenanthridin-5(6H)-yl)sulfonyl]phenol] showed a melting point of 172 to 174 °C. In the data set with ER/NF-κB, the Emax stood at 100% and the IC50 came out at 1.44 µM. Moreover, in the data set on creatine kinase (Homo sapiens, HAECT1), the EC50 worked out at 0.75 µM and the Emax was determined as 34%.

Take `CC1c2ccccc2-c2cc(Br)ccc2N1S(=O)(=O)c1ccc(O)c(F)c1` (stereo not shown) [Example 57, 4-[(2-Bromo-6-methylphenanthridin-5(6H)-yl)sulfonyl]-2-fluorophenol]: the melting point fell in the range of 203 to 206 °C. Also, the IC50 with ER/NF-κB was over 10 µM. For the same molecule, the Emax at 10 µM in the data set with creatine kinase (Homo sapiens, HAECT1) was under 35%.

`CC1c2ccccc2-c2ccccc2N1S(=O)(=O)c1ccc(O)c(C(F)(F)F)c1` (stereo not shown) [Example 58, 4-[(6-Methylphenanthridin-5(6H)-yl)sulfonyl]-2-(trifluoromethyl)phenol] registered a melting point of 213 to 215 °C. Besides, the IC50 in the data set with ER/NF-κB is over 10 µM. In addition, the Emax at 10 µM in the data set with creatine kinase (Homo sapiens, HAECT1) is under 35%.

Turning to `Cc1cc(S(=O)(=O)N2c3ccccc3-c3ccccc3C2C)cc(C)c1O` (stereo not shown) [Example 59, 2,6-Dimethyl-4-[(6-methylphenanthridin-5(6H)-yl)sulfonyl]phenol], the melting point fell in the range of 211 to 213 °C. In the data set on ER/NF-κB, the Emax amounted to 102% and the IC50 is 1.72 µM. For the same molecule, in the data set with creatine kinase (Homo sapiens, HAECT1), the EC50 worked out at 2.93 µM and the Emax was found to be 22%.

For `Cc1ccc2c(c1)C(C)N(S(=O)(=O)c1ccc(O)cc1)c1ccccc1-2` (stereo not shown) [Example 60, 4-[(6,8-Dimethylphenanthridin-5(6H)-yl)sulfonyl]phenol], the melting point lay in the range of 111 to 113 °C. Moreover, in the data set with ER/NF-κB, the Emax was 95% and the IC50 stood at 0.257 µM. For the same molecule, the Emax at 10 µM with creatine kinase (Homo sapiens, HAECT1) was under 35%.

As to `CC1c2cc(Cl)ccc2-c2cc(Br)ccc2N1S(=O)(=O)c1ccc(O)cc1` (stereo not shown) [Example 62, 4-[(2-Bromo-8-chloro-6-methylphenanthridin-5(6H)-yl)sulfonyl]phenol], the melting point lay in the range of 213 to 215 °C. In the data set with ER/NF-κB, the Emax was 90% and the IC50 stood at 0.12 µM. In addition, the Emax at 10 µM with creatine kinase (Homo sapiens, HAECT1) was under 35%.

As for `C[C@@H]1c2ccccc2-c2ccc(F)cc2N1S(=O)(=O)c1cccc(O)c1` [Example 107, 3-{[(6R)-3-Fluoro-6-methylphenanthridin-5(6H)-yl]sulfonyl}phenol], in the data set on IL-6 (Homo sapiens, HAECT1, IL-1β), the Emax is 79% and the IC50 worked out at 1.33 µM. For the same molecule, in the data set with creatine kinase (Homo sapiens, HAECT1), the EC50 was found to be 0.11 µM and the Emax worked out at 20%.

In the case of `C[C@H]1c2ccccc2-c2ccc(F)cc2N1S(=O)(=O)c1cccc(O)c1` [Example 108, 3-{[(6S)-3-Fluoro-6-methylphenanthridin-5(6H)-yl]sulfonyl}phenol], in the data set on IL-6 (Homo sapiens, HAECT1, IL-1β), the Emax was 92% and the IC50 came to 0.043 µM. Also, in the data set with creatine kinase (Homo sapiens, HAECT1), the 50% effective concentration (EC50) turned out to be 0.152 µM and the Emax was found to be 11%.

In the case of `CC1c2ccc(F)cc2-c2ccc(F)cc2N1S(=O)(=O)c1ccc(O)cc1` (stereo not shown) [Example 114, 4-[(3,9-Difluoro-6-mthylphenanthridin-5(6H)-yl)sulfonyl]ph nol], in the data set with IL-6 (IL-1β), the “Interleukin-6 Efficacy (%)” value was found to be 98% and the IC50 was 0.078 µM. In addition, in the data set with creatine kinase, the “Creatin Kinase Efficacy (%)” value worked out at 23%.

For the molecule `C[C@H]1c2ccccc2-c2ccc(Cl)cc2N1S(=O)(=O)c1cccc(O)c1` [Example 120, 3-{[(6S)-3-Chloro-6-mthylphenanthridin-5(6H)-yl]sulfonyl}ph nol], in the data set with IL-6 (IL-1β), the “Interleukin-6 Efficacy (%)” value amounted to 153% and the IC50 was 0.006 µM. The “Creatin Kinase Efficacy (%)” value in the data set with creatine kinase was 10%.

Take `C[C@@H]1c2ccccc2-c2ccc(Cl)cc2N1S(=O)(=O)c1ccc(O)cc1` [Example 122, 4-{[(6R)-3-Chloro-6-methylphenanthridin-5(6)-yl]sulfonyl}phenol]: in the data set with IL-6 (IL-1β), the “Interleukin-6 Efficacy (%)” value is on record as 37% and the IC50 came out at 0.464 µM. Besides, in the data set on creatine kinase, the “Creatin Kinase Efficacy (%)” value is 14% and the EC50 is 0.805 µM.

With `C[C@H]1c2ccccc2-c2ccc(Cl)cc2N1S(=O)(=O)c1ccc(O)cc1O` [Example 125, 4-{[(6S)-3-Chlro-6-methylphenanthridin-5(6H)-yl]sulfonyl}b nzne-1,3-diol], in the data set with IL-6 (IL-1β), the “Interleukin-6 Efficacy (%)” value is given as 94% and the IC50 came out at 0.054 µM. Besides, in the data set with creatine kinase, the “Creatin Kinase Efficacy (%)” value was 22%.
